Marks after values point to notes of the source that are not given here.
Target: T1, TRPA1 (Homo sapiens, UniProt O75762)
T1 construct: Human sensory neurons were obtained from pluripotent stem cells and cultured in culture plates; endogenous in cells; host or cells: human pluripotent-stem-cell-derived sensory neurons co-cultured with human keratinocytes
Experiment: Protection against activation of TRPA1 following AITC stimulation, Fluo-4 AM calcium fluorescence in keratinocyte-sensory neuron co-culture
Assay type: cell-based
Conditions: for Activation of TRPA1 following stimulation with AITC, fluorescence, Mean +/- sem: human keratinocyte-neuron co-culture, 1 mM AITC, 6 replicates, 3 minutes
Description: The in vitro example described here relates to the reduction in the activation of the receptor TRPA1, involved in the induction of sensations of itching/irritation/scratching/pain of the skin following certain stimulations.
Protection Against Activation of TRPA1 (Neuron Experts Service)
Human sensory neurons were obtained from pluripotent stem cells and cultured in culture plates. Human keratinocytes were grown and then seeded above the neurons.
After 19 days of co-culture at 37° C. in a humid atmosphere under 5% CO2, the test products or the positive reference, HC030031 (C18H21N5O3), at 10 μM, and also the fluorescent probe Fluo-4 AM, were added to the co-culture. The Fluo-4 AM probe makes it possible to follow the rapid kinetics of the variation of the intracellular calcium concentration by measuring in real time its fluorescence intensity, and the calcium flux is associated with activation of TRPA1.
After 30 minutes of incubation, the culture medium was removed and the cultures were washed and then reincubated with the test products. Immediately afterwards, they were placed under an inverted microscope and observed in epifluorescence. […] Five seconds after starting the recording, the neurons were stimulated with 10^-3 M AITC (allyl isothiocyanate).
The experiments were carried out in 6 replicates. The fluorescence was analyzed for 3 minutes.
The fluorescence values were expressed as means+/−sem [standard error of the mean=standard deviation/root (number of values)].
For each condition, the percentages of stimulation and of protection were calculated as follows: % stimulation=100×[mean(condition)]/[mean(cells stimulated with AITC)] % protection=100×[mean(condition)−mean(cells stimulated with AITC)]/[mean(unstressed cells)−mean(cells stimulated with AITC)].
Statistical analysis was performed by a one-way ANOVA test with a significance threshold set at 5%, by comparing the conditions in pairs. A difference between the efficacy of two products was considered: • significant if p<0.05; • “at the limit of significance” if 0.05≤p<0.1; • and not significant if p>0.1.

[1] = HC030031 10 μM, coriander seed oil 0.001%

T1 sequence (O75762 whole entry): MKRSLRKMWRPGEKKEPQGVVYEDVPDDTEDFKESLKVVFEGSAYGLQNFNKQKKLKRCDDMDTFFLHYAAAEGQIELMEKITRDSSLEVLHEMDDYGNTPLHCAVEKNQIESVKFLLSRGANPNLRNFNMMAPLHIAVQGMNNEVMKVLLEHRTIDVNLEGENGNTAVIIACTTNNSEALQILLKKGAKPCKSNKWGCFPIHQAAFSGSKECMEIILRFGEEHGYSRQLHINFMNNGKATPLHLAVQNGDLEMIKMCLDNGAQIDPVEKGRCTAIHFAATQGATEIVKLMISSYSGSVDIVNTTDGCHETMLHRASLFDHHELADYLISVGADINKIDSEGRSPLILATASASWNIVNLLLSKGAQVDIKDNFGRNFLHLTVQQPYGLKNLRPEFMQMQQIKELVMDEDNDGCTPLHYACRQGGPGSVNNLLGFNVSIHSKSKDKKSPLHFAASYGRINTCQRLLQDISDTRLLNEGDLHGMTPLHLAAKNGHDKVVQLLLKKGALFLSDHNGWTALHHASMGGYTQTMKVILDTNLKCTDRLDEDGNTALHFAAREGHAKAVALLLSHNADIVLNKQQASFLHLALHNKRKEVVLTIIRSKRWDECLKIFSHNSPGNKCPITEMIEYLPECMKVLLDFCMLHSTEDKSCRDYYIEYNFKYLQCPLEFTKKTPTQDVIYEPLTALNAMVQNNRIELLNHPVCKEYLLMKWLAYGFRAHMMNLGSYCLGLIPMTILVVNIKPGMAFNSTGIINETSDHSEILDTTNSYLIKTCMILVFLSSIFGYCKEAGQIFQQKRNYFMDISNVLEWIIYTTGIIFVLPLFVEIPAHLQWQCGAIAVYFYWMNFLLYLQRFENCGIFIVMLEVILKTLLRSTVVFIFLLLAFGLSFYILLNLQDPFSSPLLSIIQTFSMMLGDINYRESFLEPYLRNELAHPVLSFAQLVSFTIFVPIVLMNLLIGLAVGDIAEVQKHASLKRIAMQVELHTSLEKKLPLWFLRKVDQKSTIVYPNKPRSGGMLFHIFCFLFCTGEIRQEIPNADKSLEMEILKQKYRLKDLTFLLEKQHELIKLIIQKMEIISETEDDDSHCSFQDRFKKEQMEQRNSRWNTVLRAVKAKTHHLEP

Structure (SMILES) | Activation of TRPA1 following stimulation with AITC, fluorescence, Mean +/- sem [1] | increase in the activation of TRPA1 vs non-stimulated cells (keratinocyte-neuron co-culture, AITC stimulation) [%] | reduction of the activation of TRPA1 (AITC-stimulated keratinocyte-neuron co-culture, coriander seed oil 0.001%) [%] | % protection (against 1 mM AITC stimulation, HC030031 10 μM, coriander seed oil 0.001%) [%] | % stimulation (relative to cells stimulated with 1 mM AITC, HC030031 10 μM, coriander seed oil 0.001%) [%]
C=CCN=C=S [AITC, allyl isothiocyanate] | 34035 +/− 1910*** AU | 585 |  |  | 
CC(C)c1ccc(NC(=O)Cn2cnc3c2c(=O)n(C)c(=O)n3C)cc1 [HC030031] | 8537 +/− 553*** AU |  | 88 | 88 | 25
